{
  "source": "patent US20110166066A1",
  "about": "“CATESTATIN (CST) AND ITS VARIANTS FOR TREATMENT OF CARDIOVASCULAR AND METABOLIC DISORDERS” (priority 2008, published 2011)",
  "key": {"[1]": {"system": "Langendorff perfused rat heart", "test": "Isoproterenol stimulated Langendorff heart preparations", "experimental": "Isoproterenol stimulated preparations—Cardiac preparations were stabilized for 20 min with KHs and then perfused with 5 nM ISO for 10 min. ISO was washed-out with KHs. After returning to control conditions, each heart was perfused with KHs containing a single concentration of WT-Cts […] or G364S-Cts (200 nM) with 5 nM ISO for a further 10 min.\nTo further describe the antagonistic action of either WT-Cts (33 nM), P370L-Cts (110 nM) or G364S-Cts (200 nM) against ISO-dependent stimulation, dose-response curves were generated by perfusing the heart preparations with KHs enriched with increasing concentrations of ISO (0.1 nM to 1 μM) alone. These curves were then compared to those obtained by exposing other cardiac preparations to the same perfusion medium containing increasing concentrations of ISO (0.1 nM to 1 μM) plus a single concentration of either WT-Cts (33 nM) or P370L-Cts (110 nM) or G364S-Cts (200 nM).\nStatistics—Data are expressed as the mean±SEM. Curve fitting was accomplished in the program Kaleidagraph (Synergy Software, Reading, Pa.). Peptide EC50 and IC50 values were interpolated as the concentration that achieved 50% stimulation and inhibition, respectively. For analysis of phosphorylated proteins, levels were quantified using Bio-Rad QuantifyOne and volumes of phosphorylated proteins were divided by the levels of non-phosphorylated proteins to calculate fold activation. Stimulation of protein activity was expressed as fold increase over vehicle-treated control. The means and S.E.M. were calculated for each treatment. Multiple comparisons were made using either one-way ANOVA followed by Bonferroni's post-hoc test or two-way ANOVA. Statistical significance was concluded at p<0.05. Statistics were computed with the program InStat (GraphPad Software, Inc., San Diego, Calif.).\nTo characterize the inhibitory action of either WT-CST (11, 33 or 110 nM), G364S-CST (200 nM) or P370L-CST (110 nM) toward ISO-dependent stimulation of cardiac function, heart preparations were perfused with KHs containing increasing concentrations of ISO (0.1 nM to 1 μM) either alone or in combination with one of the three CST variants."}, "C57/BL/6J mice cornea": {"system": "C57/BL/6J mice cornea", "test": "Cornea neovascularisation assay", "assay_type": "in vivo", "conditions": "pellet 500 ng, day 7", "experimental": "Cornea Neovascularisation Assay. Pellets containing 500 ng Catestatin were implanted in C57/BL/6J mice (age of 8 weeks) as described (36). On postoperative day 7 mice received an intravenous injection of 500 μg BS1 lectin conjugated to FITC (Vector Laboratories). After euthanasia, enucleated eyes were fixed in 1% paraformaldehyde, corneas dissected and examined by fluorescence microscopy."}, "EPCs": {"system": "EPCs", "test": "Effects on EPCs in-vitro", "assay_type": "cell-based"}, "eNOS": {"system": "eNOS", "test": "eNOS signalling by immunoblotting of mouse tissues", "assay_type": "in vivo", "conditions": "CgA-KO mice", "source_text": "Adult WT (C57BL/6) and CgA-KO mice with mixed genetic background (129svJ×C57BL/6) were used in this study. Both WT and KO mice were generated from the original founder carrying mixed genotype (50% 129svJ: 50% C57BL/6) and were maintained by brother/sister mating. Hypertensive CGA-KO mice will serve as a model for hyper insulin sensitivity. WT mice were fed 60% high fat diet (HFD) for 20 weeks. Body weight and blood glucose levels were monitored and glucose and insulin tolerance testa were performed to determine status of insulin resistance. After 20 weeks of HFD feeding mice were injected IP with catestatin (40 μg/gm body weight) twice daily for 7 days. On the 8th day, 12 hours fasted mice were subjected to glucose tolerance tests to determine their insulin sensitivity. Tissues of WT and CgA-KO mice are analyzed AMPK and eNOS signalling by immunoblotting."}, "[2]": {"system": "PLN (phospholamban) Ser16", "test": "Immunoblot of phosphorylated PLN in WT-CST perfused hearts", "parameters": "species or system rat", "conditions": "110 nM", "experimental": "Cardiac signaling—Hearts were perfused with or without 110 nM WT-Cts as before. At the end of experiment hearts were snap frozen under liquid nitrogen and homogenized with 1 ml of ice cold 0.2 M sucrose, Tris maleate (pH 7.0) buffer supplemented with 2 mM EDTA, pH 8.0, 1 mM sodium orthovanadate, 10 mM sodium pyrophosphate, 1 mM phenylmethylsulfonyl fluoride, 10 μg/ml leupeptin, 10 μg/ml aprotinin and 0.1 mM 3-isobutyl-1-methylxanthine. SR membrane fractions were isolated from cytosolic proteins as described before (27). Protein content was determined by Bradford assay (BIO-RAD) and 100 μg of cytosolic protein was subjected to SDS-PAGE immunoblot analysis for phosphorylated-ERK, total ERK (P-ERK and T-ERK; Santa Cruz, Calif.). […]\nStatistics—Data are expressed as the mean±SEM. Curve fitting was accomplished in the program Kaleidagraph (Synergy Software, Reading, Pa.). […] For analysis of phosphorylated proteins, levels were quantified using Bio-Rad QuantifyOne and volumes of phosphorylated proteins were divided by the levels of non-phosphorylated proteins to calculate fold activation. Stimulation of protein activity was expressed as fold increase over vehicle-treated control. The means and S.E.M. were calculated for each treatment. […]"}, "[3]": {"system": "WT and Chga knockout (KO) mice", "test": "Plasma catecholamine assay", "assay_type": "in vivo", "conditions": "CST 40 μg/g bw ip for 30 min", "experimental": "Catecholamine assay following immobilization stress: Mice were anesthetized by inhalation of “Isoflurane, USP” and blood was collected from the left ventricle in potassium EDTA tubes. […] Plasma catecholamine was measured by HPLC connected to an electrochemical detector (Waters 600E Multisolvent Delivery system and Waters 2465 Electrochemical Detector, MA) in a group of restraint mice (non-telemetered). Separation was performed on an Atlantis dC18 column (2.1×150 mm, 3 μm) from Waters. The mobile phase (0.15 ml/min) consisted of phosphate-citrate buffer and 2.2% N, N-Dimethylacetamide and acetonitrile at 95:5 (V/V). An internal standard 3,4-Dihydroxybenzylamine (DHBA, 1 ng) and an antioxidant sodium meta-bisulfite (final concentrations of 0.125 mM) were added to 0.25 ml of plasma. Following the addition of 15 mg of alumina (Aluminium oxide, Activity Grade: Super I, Type WA-4, Sigma-Aldrich, PA), the pH of the solution was raised to pH 8.6 by adding Tris buffer (0.96 M Tris, 50 mM EDTA, pH 8.69). Following a 30 min incubation and centrifugation (5000 rpm, 5 min), the supernatant was discarded and the beads were washed with water. The catecholamine was eluted with […] of 0.1 N HCl supplemented with 0.1 mM sodium meta-bisulfite. The data were analyzed using Empower software. Catecholamine levels were normalized with the recovery of internal standard."}},
  "note": "No end group written: not given here.",
  "data": [
    {"sequence": "SSMKLSFRARAYGFRGPGPQL [WT-CST, catestatin]", "values": [
      {"measurement": "Type of antagonism against ISO", "setting": "[1]", "result": "non-competitive type of antagonism"},
      {"measurement": "Block of ISO-dependent +(LVdP/dT)max", "setting": "[1]; ISO 5 nM", "result": "~90", "unit": "%"},
      {"measurement": "ISO induced coronary dilation", "setting": "[1]; ISO 5 nM", "result": "blocked"},
      {"measurement": "ISO-induced positive lusitropism", "setting": "[1]; ISO 5 nM", "result": "blocked"},
      {"measurement": "Rank order of potency against ISO", "setting": "[1]; ISO 5 nM", "result": "Order of potency: WT-CST > G364S-CST > P370L-CST"},
      {"measurement": "ISO stimulatory effect on LVP", "setting": "[1]; ISO 5 nM, measured at 5 min", "result": "abolished"},
      {"measurement": "Coronary pressure (ISO alone or ISO + peptide)", "setting": "[1]; Table 3, ISO 5 nM", "result": "Abolished"},
      {"measurement": "Inotropism (ISO alone or ISO + peptide)", "setting": "[1]; Table 3, ISO 5 nM", "result": "Abolished"},
      {"measurement": "Lusitropism (ISO alone or ISO + peptide)", "setting": "[1]; Table 3, ISO 5 nM", "result": "Abolished"},
      {"measurement": "Angiogenesis in the cornea", "setting": "C57/BL/6J mice cornea", "result": "induced growth of arteries"},
      {"measurement": "Effects on EPCs (chemotaxis, incorporation into vascular structures)", "setting": "EPCs", "result": "showed effects on EPCs"},
      {"measurement": "eNOS signal", "setting": "eNOS", "result": "reduced"},
      {"measurement": "Phosphorylation of PLN at Ser16", "setting": "[2]", "result": "inhibited"},
      {"measurement": "Basal plasma norepinephrine and epinephrine", "setting": "[3]", "result": "returned to WT level"}
    ]}
  ]
}
